{
  "source": "patent US20020192262A1",
  "about": "“1'-Acetoxychavicol acetate for tuberculosis treatment” (National Science and Technology Development Agency, priority 2001, published 2002)",
  "key": {"[1]": {"tested_on": "Bacillus subtilis", "settings": "cited from earlier work"}, "[2]": {"tested_on": "NADPH oxidase", "settings": "cited from earlier work"}, "[3]": {"target": "xanthine oxidase (Homo sapiens, UniProt P47989)", "sequence (P47989 whole entry, species assumed)": "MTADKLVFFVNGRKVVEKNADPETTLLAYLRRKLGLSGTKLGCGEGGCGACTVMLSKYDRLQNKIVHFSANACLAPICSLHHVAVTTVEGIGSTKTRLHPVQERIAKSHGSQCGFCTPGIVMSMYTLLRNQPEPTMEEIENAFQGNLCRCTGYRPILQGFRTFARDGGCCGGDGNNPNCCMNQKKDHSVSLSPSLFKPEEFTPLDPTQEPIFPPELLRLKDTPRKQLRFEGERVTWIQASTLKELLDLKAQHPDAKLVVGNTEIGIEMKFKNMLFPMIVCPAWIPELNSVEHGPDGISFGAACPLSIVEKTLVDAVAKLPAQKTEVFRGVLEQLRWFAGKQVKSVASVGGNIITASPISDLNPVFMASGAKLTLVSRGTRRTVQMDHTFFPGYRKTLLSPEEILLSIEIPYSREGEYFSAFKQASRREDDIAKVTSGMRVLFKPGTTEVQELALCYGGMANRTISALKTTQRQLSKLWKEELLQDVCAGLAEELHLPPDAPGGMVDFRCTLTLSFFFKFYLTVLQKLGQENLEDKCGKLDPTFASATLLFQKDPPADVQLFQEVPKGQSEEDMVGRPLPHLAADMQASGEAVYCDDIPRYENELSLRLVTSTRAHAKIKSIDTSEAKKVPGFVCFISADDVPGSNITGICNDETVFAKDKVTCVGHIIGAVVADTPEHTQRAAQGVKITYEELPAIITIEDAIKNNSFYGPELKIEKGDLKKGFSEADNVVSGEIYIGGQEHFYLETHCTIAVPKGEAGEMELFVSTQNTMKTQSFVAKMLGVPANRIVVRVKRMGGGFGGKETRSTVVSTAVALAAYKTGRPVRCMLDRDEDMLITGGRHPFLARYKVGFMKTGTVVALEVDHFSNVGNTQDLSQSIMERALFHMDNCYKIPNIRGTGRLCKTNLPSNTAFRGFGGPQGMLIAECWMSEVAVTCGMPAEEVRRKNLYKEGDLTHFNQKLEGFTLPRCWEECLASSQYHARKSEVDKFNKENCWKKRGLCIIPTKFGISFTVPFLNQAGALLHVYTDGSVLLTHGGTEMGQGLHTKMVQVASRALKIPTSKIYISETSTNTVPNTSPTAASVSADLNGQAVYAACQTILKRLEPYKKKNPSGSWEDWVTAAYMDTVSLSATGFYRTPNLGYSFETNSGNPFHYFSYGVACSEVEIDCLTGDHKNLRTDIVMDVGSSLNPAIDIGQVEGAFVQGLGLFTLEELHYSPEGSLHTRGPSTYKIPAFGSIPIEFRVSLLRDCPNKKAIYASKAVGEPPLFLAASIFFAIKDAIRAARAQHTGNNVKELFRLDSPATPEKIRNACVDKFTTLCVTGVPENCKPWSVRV", "settings": "cited from earlier work"}, "[4]": {"tested_on": "Escherichia coli", "settings": "cited from earlier work"}, "[5]": {"tested_on": "Mycobacterium tuberculosis H37Ra strain (ATCC 25166)", "test": "Microplate Alamar Blue assay (MABA), growth inhibition", "format": "cell-based", "settings": "two-fold serial dilution from 50 to 0.025 μg/ml, read-out: MIC against M. tuberculosis H37Ra", "protocol": "Mycobacterium tuberculosis H37Ra strain (ATCC 25166) was grown in 100 ml of Middlebrook 7H9 broth supplemented with 0.2% glycerol, 1.0 gm/L of casitone, 10% OADC, and 0.05% Tween 80. The complete medium was referred to as 7H9GC-Tween. The bacteria were incubated in 500-ml flasks on a rotary shaker at 200 rpm and 37° C. until the optical density at 550 nm reached 0.4-0.5. The bacteria were washed twice with phosphate-buffered saline and then suspended in 20 ml of phosphate-buffered saline. The suspension was passed through an 8-μm-pore-size filter to eliminate clumps. The number of the bacteria in the filtrates was counted by plating the bacteria in Middlebrook 7H10 agar. The filtrates were stored at −80° C.\nAnti-tuberculous testing was performed in a 96-well microplate as previously described (Collins, L. and Franzblau, S. G. 1997). […]\nThe plates were sealed with Parafilm and were incubated at 37° C. for 5 days. […] The results were recorded at 24 h post-reagent addition.\nA blue color in the well was interpreted as no growth, reflecting the activity of the test compound in the well. A pink color was scored as growth and reflected the lack of activity of the test compound. A few wells appeared violet after 24 h of incubation, but they invariably changed to pink after another day of incubation and thus were scored as growth (while the adjacent blue wells remained blue). […]"}, "[6]": {"tested_on": "dermatophytic fungi such as Trichophyton mentagrophytes, Trichophyton rubrum, Trichophyton concentricum and Epidermophyton floccosum", "settings": "cited from earlier work"}, "[7]": {"tested_on": "Staphylococcus aureus", "settings": "cited from earlier work"}, "[8]": {"tested_on": "Vero cells", "settings": "African green monkey, 3 days"}, "[9]": {"tested_on": "nitric oxide synthase production in RAW264 (mice macrophage) cell line", "settings": "concentration of 250 (unit not given), cited from earlier work"}, "[10]": {"tested_on": "Rhizopus stolonifer, Penicillium expansum, Aspergilus niger", "settings": "compared with MIC for dermatophytic fungi; cited from earlier work"}, "[11]": {"tested_on": "Ebstein-Barr virus", "settings": "cited from earlier work"}, "[12]": {"tested_on": "Candida albicans", "settings": "cited from earlier work"}, "[13]": {"tested_on": "tumor and cancer in mice experimental models", "settings": "skin, bile duct, esophageal, large intestinal, oral cancer and liver tumor models; cited from earlier work"}, "[14]": {"tested_on": "Pseudomonas aeruginosa", "settings": "cited from earlier work"}},
  "data": [
    {"compound": "C=CC(OC(C)=O)c1ccc(OC(C)=O)cc1", "note": "(stereo not drawn) [1′-acetoxychavicol acetate, 1′-Acetoxychavicol acetate]", "values": [
      {"measurement": "growth inhibition of Bacillus subtilis", "setting": "[1]", "result": "could not inhibit the growth"},
      {"measurement": "inhibition of the function of NADPH oxidase", "setting": "[2]", "result": "could inhibit the function"},
      {"measurement": "inhibition of the function of xanthine oxidase", "setting": "[3]", "result": "could inhibit the function"},
      {"measurement": "growth inhibition of Escherichia coli", "setting": "[4]", "result": "could not inhibit the growth"},
      {"measurement": "MIC", "setting": "[5]", "result": 0.1, "unit": "µg/mL"},
      {"measurement": "minimal inhibitory concentrations (MIC) against dermatophytic fungi", "setting": "[6]", "result": "50 to 250", "unit": "µg/mL"},
      {"measurement": "growth inhibition of Staphylococcus aureus", "setting": "[7]", "result": "could slightly inhibit the growth"},
      {"measurement": "toxic level against Vero cells (concentration giving less than half the viable cells of negative control)", "setting": "[8]", "result": 2.0, "unit": "µg/mL"},
      {"measurement": "inhibition of nitric oxide synthase production, lipopolysaccharide stimulated", "setting": "[9]; 100 ng/ml bacterial lipopolysaccharide", "result": "could completely inhibit"},
      {"measurement": "inhibition of nitric oxide synthase production, interferon-γ stimulated", "setting": "[9]; 100 ng/ml interferon-γ", "result": 80, "unit": "%"},
      {"measurement": "growth inhibition of Rhizopus stolonifer, Penicillium expansum, Aspergilus niger", "setting": "[10]", "result": "inhibited the growth of several other fungi"},
      {"measurement": "inhibition of activation of tumor virus", "setting": "[11]", "result": "could inhibit the activation of tumor virus"},
      {"measurement": "growth inhibition of Candida albicans", "setting": "[12]", "result": "could not inhibit the growth"},
      {"measurement": "inhibition of tumor and cancer formation", "setting": "[13]", "result": "can inhibit the formation of many tumor and cancer"},
      {"measurement": "growth inhibition of Pseudomonas aeruginosa", "setting": "[14]", "result": "could not inhibit the growth"}
    ]}
  ]
}
